In patent US5773444A, “Quinazolines as inhibitors of endothelin converting enzyme” (Warner-Lambert Company, priority 1997, dated 1998):
Structures can show the parent of a compound that is named as a salt. Non-standard residues stand in square brackets, D forms with d. Residues, ends and D or L forms follow the SMILES beside them. *: point of attachment. Sta = CC(C)C[C@H](N)[C@@H](O)CC(=O)O; Isovaleryl = CC(C)CC(=O)*

T1: endothelin converting enzyme (ECE) (Homo sapiens, UniProt P42892)
T1 construct: ECE was partially purified from EA.hy926 grown in 150 roller; endogenous in cells; host or cells: EA.hy926 (human umbilical vein endothelial cells fused with A549); detergent-solubilised membranes, RCA-I lectin eluate
T1 sequence (P42892 whole entry, looked up): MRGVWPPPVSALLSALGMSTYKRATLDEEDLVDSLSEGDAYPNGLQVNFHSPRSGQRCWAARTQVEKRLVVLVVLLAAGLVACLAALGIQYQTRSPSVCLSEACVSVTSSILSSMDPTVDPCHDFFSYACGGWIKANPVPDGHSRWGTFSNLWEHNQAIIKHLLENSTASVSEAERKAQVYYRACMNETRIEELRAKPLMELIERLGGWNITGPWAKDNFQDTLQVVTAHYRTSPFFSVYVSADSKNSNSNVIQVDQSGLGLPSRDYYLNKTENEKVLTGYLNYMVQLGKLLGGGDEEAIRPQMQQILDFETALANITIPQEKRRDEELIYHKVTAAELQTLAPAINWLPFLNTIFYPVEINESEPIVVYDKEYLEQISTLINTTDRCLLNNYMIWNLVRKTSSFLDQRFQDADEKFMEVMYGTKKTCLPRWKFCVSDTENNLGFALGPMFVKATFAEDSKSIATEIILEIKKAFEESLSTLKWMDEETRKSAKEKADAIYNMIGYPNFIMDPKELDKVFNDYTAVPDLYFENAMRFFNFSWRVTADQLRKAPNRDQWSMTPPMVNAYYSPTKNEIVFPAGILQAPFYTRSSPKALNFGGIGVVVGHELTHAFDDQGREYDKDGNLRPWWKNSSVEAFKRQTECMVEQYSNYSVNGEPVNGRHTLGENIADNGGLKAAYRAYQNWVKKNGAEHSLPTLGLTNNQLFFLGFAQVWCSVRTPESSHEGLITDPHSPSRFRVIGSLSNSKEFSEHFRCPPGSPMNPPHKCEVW


Target: T2, endothelin converting enzyme (ECE) (Homo sapiens, UniProt P42892)
T2 construct: ECE was partially purified from EA.hy926 grown in 150 roller; endogenous in cells; host or cells: EA.hy926 (human umbilical vein endothelial cells fused with A549); detergent-solubilised membranes, RCA-I lectin eluate
Experiment: ECE assay (partially purified ECE from EA.hy926, ET-1 production by RIA)
Assay type: biochemical
Conditions: not given

Molecule	inhibition of the enzyme (in words)
O=C(O)CN(CCN(CC(=O)O)CC(=O)O)CC(=O)O [EDTA]	inhibited

Same assay, conditions: 10 μM big ET-1, pH 7.0, 1.5 hours at 37° C., 3% DMSO; read-out: IC50 (Table III, Biological Activity of Compounds of the Present Invention)

Molecule	IC50
CCN1CCCC(Nc2nc(C(Cl)(Cl)Cl)nc3ccc(I)cc23)C1 (stereo not drawn) [Example 1, (1-Ethyl-piperidin-3-yl)-(6-iodo-2-trichloromethyl-quinazolin-4-yl)-amine, Monohydrochloride]	4.2 ± 0.5 µM
CCN1CCCC(Nc2nc(-c3ccccc3)nc3ccc(I)cc23)C1 (stereo not drawn) [Example 2, (1-Ethyl-piperidin-3-yl)-(6-iodo-2-phenyl-quinazolin-4-yl)-amine]	9.2 ± 0.8 µM
CCN1CCCC(Nc2nc(C(Cl)(Cl)Cl)nc3ccc(Cl)cc23)C1 (stereo not drawn) [Example 3, (1-Ethyl-piperidin-3-yl)-(6-chloro-2-trichloromethyl-quinazolin-4-yl)-amine]	14.1 ± 1.5 µM
CCN1CCCC(Nc2nc(C(Cl)(Cl)Cl)nc3ccc([N+](=O)[O-])cc23)C1 (stereo not drawn) [Example 4, (1-Ethyl-piperidin-3-yl)-(6-nitro-2-trichloromethyl-quinazolin-4-yl)-amine]	29.1 ± 5.4 µM
CCN1CCCC(Nc2nc(C(C)(C)C)nc3ccc(I)cc23)C1 (stereo not drawn) [Example 5, (2-tert-Butyl-6-iodo-quinazolin-4-yl)-(1-ethyl-piperidin-3-yl)-amine]	17.6 ± 1.7 µM
NCCNc1nc(C(Cl)(Cl)Cl)nc2ccc(I)cc12 [Example 6, N-(6-Iodo-2-trichloromethyl-quinazolin-4-yl)-ethane-1,2-diamine hydrochloride]	29.6 ± 6 µM
CNCCNc1nc(C(Cl)(Cl)Cl)nc2ccc(I)cc12 [Example 7, N-(6-Iodo-2-trichloromethyl-quinazolin-4-yl)-N^1-methyl-ethane-1,2-diamine]	22.1 ± 4.8 µM
CN(C)CCNc1nc(C(Cl)(Cl)Cl)nc2ccc(I)cc12 [Example 8, N-(6-Iodo-2-trichloromethyl-quinazolin-4-yl)-N^1,N^1-dimethyl-ethane-1,2-diamine]	11.1 ± 2.7 µM
ClC(Cl)(Cl)c1nc(NCCN2CCCCC2)c2cc(I)ccc2n1 [Example 9]	3.7 ± 1.6 µM
ClC(Cl)(Cl)c1nc(NCCN2CCOCC2)c2cc(I)ccc2n1 [Example 10, (6-Iodo-2-trichloromethyl-quinazolin-4-yl)-(2-morpholin-4-yl-ethyl)-amine]	25.4 ± 4.2 µM
CCN1CCCC1CNc1nc(C(Cl)(Cl)Cl)nc2ccc(I)cc12 (stereo not drawn) [Example 11, (1-Ethyl-pyrrolidin-2-yl-methyl)-(6-iodo-2-trichloromethyl-quinazolin-4-yl)-amine]	12.4 ± 1 µM
ClC(Cl)(Cl)c1nc(NC2CN3CCC2CC3)c2cc(I)ccc2n1 (stereo not drawn) [Example 12, (1 -Aza-bicyclo[2,2,2,]oct-3-yl)-(6-iodo-2-trichloromethyl-quinazolin-4-yl)-amine]	11.1 ± 1.7 µM
CC(C)N(CCNc1nc(C(Cl)(Cl)Cl)nc2cc(Cl)ccc12)C(C)C [Example 13, N-(7-Chloro-2-trichloromethyl-quinazolin-4-yl)-N',N'-diisopropyl-ethane-1,2-diamine]	66.6 ± 11.8 µM
O=C(O)CN1CCCC(Nc2nc(C(Cl)(Cl)Cl)nc3ccc(I)cc23)C1 (stereo not drawn) [Example 14, [3-(6-Iodo-2-trichloromethyl-quinazolin-4-yl-amino)-piperidin-1-yl]-acetic acid potassium salt]	75.5 ± 11.6 µM
CN(C)CC(CN(C)C)Nc1nc(C(Cl)(Cl)Cl)nc2ccc(I)cc12 [Example 16, N'-(6-Iodo-2-trichloromethyl-quinazolin-4-yl)-N,N,N",N"-tetramethyl-propane-1,2,3-triamine monohydrochloride]	8.4 ± 1.4 µM
CCN1CCCC(Nc2nc(C(F)(F)F)nc3ccc(I)cc23)C1 (stereo not drawn) [Example 17, (1-Ethyl-piperidin-3-yl)-(6-iodo-2-trifluoromethyl-quinazolin-4-yl)-amine]	2.3 ± 0.3 µM

Same assay, conditions: 100 μM thiorphan or 100 nM phosphoramidon

Molecule	effect on ECE activity at NEP-blocking concentration
O=C(O)CNC(=O)C(CS)Cc1ccccc1 (stereo not drawn) [thiorphan]	without affecting the ECE activity

Same assay, conditions: partially purified ECE from EA.hy926

Molecule	inhibition of the enzyme (in words)
c1cnc2c(c1)ccc1cccnc12 [1,10-phenanthroline]	inhibited
O=C(O)CN(CCOCCOCCN(CC(=O)O)CC(=O)O)CC(=O)O [EGTA]	inhibited
CC(C)C[C@H](NC(=O)[C@H]1O[C@@H]1C(=O)O)C(=O)NCCCCN=C(N)N [Example E-64]	not inhibited
CC(C)C[C@H](NC(=O)[C@@H](O)[C@H](N)Cc1ccccc1)C(=O)O [bestatin]	not inhibited
C[C@H](CS)C(=O)N1CCC[C@H]1C(=O)O [captopril]	not inhibited
C[C@H](N[C@@H](CCc1ccccc1)C(=O)O)C(=O)N1CCC[C@H]1C(=O)O [enalaprilat]	not inhibited
CC(=O)N[C@@H](CC(C)C)C(=O)N[C@@H](CC(C)C)C(=O)N[C@H](C=O)CCCNC(=N)N [leupeptin]	not inhibited
CC(C)CC(=O)N[C@H](C(=O)N[C@H](C(=O)N[C@@H](CC(C)C)[C@@H](O)CC(=O)N[C@@H](C)C(=O)N[C@@H](CC(C)C)[C@@H](O)CC(=O)O)C(C)C)C(C)C [pepstatin A] (Isovaleryl-VV[Sta]A[Sta]-OH)	not inhibited
O=S(=O)(F)Cc1ccccc1 [phenylmethlysulfonyl fluoride]	not inhibited
O=C(O)CNC(=O)C(CS)Cc1ccccc1 (stereo not drawn) [thiorphan]	not inhibited

Target: T1, endothelin converting enzyme (ECE)
Experiment: as above
Assay type: biochemical
Conditions: partially purified ECE from EA.hy926

Molecule	inhibition of the enzyme (in words)
soybean trypsin inhibitor: soybean trypsin inhibitor (protein, UniProt P01070 25-205, looked up) Trypsin inhibitor A: DFVLDNEGNPLENGGTYYILSDITAFGGIRAAPTGNERCPLTVVQSRNELDKGIGTIISSPYRIRFIAEGHPLSLKFDSFAVIMLCVGIPTEWSVVEDLPEGPAVKIGENKDAMDGWFRLERVSDDEFNNYKLVFCPQQAEDDKCGDIGISIDHDDGTRRLVVSKNKPLVVQFQKLDKESL	not inhibited

Test system: neutral endopeptidase 24.11 (NEP 24.11)
Experiment: NEP 24.11 inhibition under ECE assay conditions
Assay type: biochemical, human
Conditions: 100 μM thiorphan or 100 nM phosphoramidon
Text: The cell line, EA.hy926, contains neutral endopeptidase 24.11 (NEP 24.11) which also cleaves big ET-1 to ET-1 and c-terminal fragment (manuscript submitted). […] All the data were obtained in the linear range of time-course curves.

Molecule	NEP 24.11 inhibition
O=C(O)CNC(=O)C(CS)Cc1ccccc1 (stereo not drawn) [thiorphan]	completely inhibited

Test system: ET-1 production in cultured bovine aortic endothelial cells
Experiment: not given
Conditions: intracellular accumulation of pepstatin; cited from earlier work

Molecule	inhibition of ET-1 production
CC(C)CC(=O)N[C@H](C(=O)N[C@H](C(=O)N[C@@H](CC(C)C)[C@@H](O)CC(=O)N[C@@H](C)C(=O)N[C@@H](CC(C)C)[C@@H](O)CC(=O)O)C(C)C)C(C)C [pepstatin] (Isovaleryl-VV[Sta]A[Sta]-OH)	did not inhibit ET-1 production

Target: T2, endothelin converting enzyme (ECE)
Experiment: Cell-based assay (ET-1 level in medium of EA.hy926 cells by RIA)
Conditions: read-out: IC50 (Table IV, cell-based assay)
Procedure: A permanent human cell line (EA.hy926), derived by fusing human umbilical vein endothelial cells with the permanent human cell line A549 (derived from a human lung carcinoma), was cultured as described, except that the medium also contained HAT supplements (100 μM hypoxanthine, 0.4 μM aminopterin, 16 μM thymidine). Edgell, C.-J. S., McDonald, C. C., and Graham, J. B. (1983) Proc. Natl. Acad. Sci. USA 80, 3734-3737. Cells from passages 40 to 50 were used. Subcultures were prepared by treating confluent cells with trypsin (0.5%) and seeded either onto 24 well plates for a cell-based assay or onto roller bottles for a partial purification of the enzyme.
ET-1 was measured by radioimmunoassay (RIA) as described previously with minor modifications. Ahn, K., Beningo, K., Olds, G., and Hupe, D. (1992) Proc. Nat. Acad. Sci. USA, 89, 8606-8610. Briefly, the RIA mixture (250 μl) contained the antibody against ET-1, an ET-1 sample, and [^125 I] ET-1 (15000 cpm) in buffer D. For the analysis of ET-1 from cell based assays, the final 6% bovine serum albumin was added. […] The amount of immunoreactive (ir) ET-1 was measured by counting the supernatant and determined from the standard curve. […]
EAhy926 cells (0.2-4×10^4) were seeded into 24-plates and cultures as described above. […] The ET-1 level from these samples were measured by RIA previously described. […]

Molecule	IC50
CCN1CCCC(Nc2nc(C(Cl)(Cl)Cl)nc3ccc(I)cc23)C1 (stereo not drawn) [Example 1, (1-Ethyl-piperidin-3-yl)-(6-iodo-2-trichloromethyl-quinazolin-4-yl)-amine, Monohydrochloride]	6.6 ± 1.5 µM
CCN1CCCC(Nc2nc(C(Cl)(Cl)Cl)nc3ccc(Cl)cc23)C1 (stereo not drawn) [Example 3, (1-Ethyl-piperidin-3-yl)-(6-chloro-2-trichloromethyl-quinazolin-4-yl)-amine]	14.4 ± 1.1 µM
